Measurements published in US20240043435A1, “TYK-2 INHIBITOR” (BEIGENE, LTD., priority 2020, published 2024).

Key:
[1] = biological target: T1, TYK2-JH2 (aa 575-869, in-house) protein (Homo sapiens, UniProt P29597); assay: TYK2-JH2 biochemical assay (HTRF probe displacement); type: binding; conditions: Biochemical assay; read-out: TYK2-JH2 IC50
T1 construct: TYK2-JH2 (aa 575-869, in-house) protein; made in house
How it was run: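 Recombinant TYK2-JH2 (0.2 nM) was pre-incubated 0.5 h at room temperature with compounds (10 doses, 5-fold dilution; 500× DMSO stocks from 500 uM) in 20 mM HEPES pH 7.5, 10 mM MgCl2, 0.005% BSA, 2 mM DTT, 0.015% Brij-35. Probe displacement was read by HTRF (ex337, em620/665 nm); IC50 from four-parameter logistic fit.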

[2] = test system: pSTAT5/GM-CSF; assay: pSTAT5/GM-CSF cellular assay (JAK2 selectivity); type: cell-based; conditions: for Selectivity fold (TYK2/JAK2): pSTAT5/GM-CSF IC50 over pSTAT4/IL-12 IC50
[3] = test system: JAK2, TYK2/p-STAT4 (Tyr693) activated by IL-12 in NK-92 cell line; assay: IL-12-JAK2, TYK2/p-STAT4 (Tyr693) inhibition IC50 cellular assay; type: cell-based; conditions: NK92, Cellular assay; read-out: pSTAT4/IL-12 IC50
How it was run: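 NK-92 cells were starved overnight without IL-2 and preincubated 1 h at 37° C with compound (8 doses, 10000–0.61 nM, 4-fold, 0.2% DMSO). They were then stimulated with IL-12 (40 ng/ml final) for 30 min. Lysate p-STAT4 (Tyr693) was read by AlphaLISA SureFire; IC50 from four-parameter logistic fit.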

T1 sequence (P29597 575-869): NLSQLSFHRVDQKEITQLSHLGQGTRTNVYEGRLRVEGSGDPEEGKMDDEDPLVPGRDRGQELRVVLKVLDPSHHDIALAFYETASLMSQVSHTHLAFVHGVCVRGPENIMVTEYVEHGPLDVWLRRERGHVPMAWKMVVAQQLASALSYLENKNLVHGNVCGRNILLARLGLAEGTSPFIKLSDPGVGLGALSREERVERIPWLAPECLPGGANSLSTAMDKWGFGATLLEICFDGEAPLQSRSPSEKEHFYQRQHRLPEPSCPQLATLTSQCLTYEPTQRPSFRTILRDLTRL

| Compound | IC50 [1] [nM] | IC50 [2] [nM] | IC50 [3] [nM] | Selectivity fold (TYK2/JAK2) [2] [fold] |
| --- | --- | --- | --- | --- |
| CC(=O)Nc1cc(Nc2cccc(S(C)(=O)=O)c2)c(-c2ccn(C3CCOC3)n2)cn1 (stereo not shown) [Example M30, N-(4-((3-(methylsulfonyl)phenyl)amino)-5-(1-(tetrahydrofuran-3-yl)-1H-pyrazol-3-yl)pyridin-2-yl)acetamide] | 0.049 | > 10000 | 11.2 | >892 |
| CC(=O)Nc1cc(Nc2cc(C)cc(S(C)(=O)=O)n2)c(-c2ccn(C3CCOC3)n2)cn1 (stereo not shown) [Example M31, N-(4-((4-methyl-6-(methylsulfonyl)pyridin-2-yl)amino)-5-(1-(tetrahydrofuran-3-yl)-1H-pyrazol-3-yl)pyridin-2-yl)acetamide] | 0.031 | 1420 | 0.828 | 1714 |
| CC(=O)Nc1cc(Nc2cc(OC(C)C)cc(S(C)(=O)=O)n2)c(-c2ccn([C@H]3CCOC3)n2)cn1 [Example M33, (S)-N-(4-((4-isopropoxy-6-(methylsulfonyl)pyridin-2-yl)amino)-5-(1-(tetrahydrofuran-3-yl)-1H-pyrazol-3-yl)pyridin-2-yl)acetamide] | 0.027 | > 10000 | 0.648 | >15432 |
| CC(=O)Nc1cc(Nc2cc(OC(C)C)cc(S(C)(=O)=O)n2)c(-c2ccn([C@@H]3CCOC3)n2)cn1 [Example M34, (R)-N-(4-((4-isopropoxy-6-(methylsulfonyl)pyridin-2-yl)amino)-5-(1-(tetrahydrofuran-3-yl)-1H-pyrazol-3-yl)pyridin-2-yl)acetamide] | 0.024 | > 10000 | 0.402 | >24875 |
| COc1cc(Nc2cc(NC(C)=O)ncc2-c2cc(C)n(C)n2)nc(S(C)(=O)=O)c1 [Example N4, N-(5-(1,5-dimethyl-1H-pyrazol-3-yl)-4-((4-methoxy-6-(methylsulfonyl)pyridin- -2-yl)amino)pyridin-2-yl)acetamide] | 0.029 | > 10000 | 0.137 | >72992 |
| COCCOc1cc(Nc2cc(NC(C)=O)ncc2-c2cc(C)n(C)n2)nc(S(C)(=O)=O)c1 [Example N5, N-(5-(1,5-dimethyl-1H-pyrazol-3-yl)-4-((4-(2-methoxyethoxy)-6-(methylsulfonyl)pyridin-2-yl)amino)pyridin-2-yl)acetamide] | 0.039 | > 10000 | 0.212 | >47169 |
| CO[C@H](C)COc1cc(Nc2cc(NC(C)=O)ncc2-c2cc(C)n(C)n2)nc(S(C)(=O)=O)c1 [Example N6, (R)-N-(5-(1,5-dimethyl-1H-pyrazol-3-yl)-4-((4-(2-methoxypropoxy)-6-(methylsulfonyl)pyridin-2-yl)amino)pyridin-2-yl)acetamide] | 0.039 | > 10000 | 0.274 | >36496 |
| CCOc1cc(Nc2cc(NC(C)=O)ncc2-c2cc(C)n(C)n2)nc(S(C)(=O)=O)c1 [Example N7, N-(5-(1,5-dimethyl-1H-pyrazol-3-yl)-4-((4-ethoxy-6-(methylsulfonyl)pyridin-2-yl)amino)pyridin-2-yl)acetamide] | 0.024 | > 10000 | 1.43 | >6993 |
| CC(=O)Nc1cc(Nc2cccc(S(C)(=O)=O)n2)c(-c2cc(N3CCOCC3)n(C)n2)cn1 [Example O1, N-(5-(1-methyl-5-morpholino-1H-pyrazol-3-yl)-4-((6-(methylsulfonyl)pyridin-2-yl)amino)pyridin-2-yl)acetamide] | 0.017 | 1210 | 0.414 | 2929 |
| CC(=O)Nc1cc(Nc2cc(OC(C)C)cc(S(C)(=O)=O)n2)c(-c2ccc3c(n2)OCCO3)cn1 [Example Q1, N-(5-(2,3-dihydro-[1,4]dioxino[2,3-b]pyridin-6-yl)-4-((4-isopropoxy-6-(methylsulfonyl)pyridine-2-yl)amino)pyridin-2-yl)acetamide] | 0.023 | > 10000 | 1.76 | >5681 |
| CC(=O)Nc1cc(Nc2cc(OC(C)C)cc(S(C)(=O)=O)n2)c(-c2cc3n(n2)CCOC3)cn1 [Example Q6, N-(5-(6,7-dihydro-4H-pyrazolo[5,1-c][1,4]oxazin-2-yl)-4-((4-isopropoxy-6-(methylsulfonyl)pyridin-2-yl)amino)pyridin-2-yl)acetamide] | 0.028 | > 10000 | 0.45 | >22222 |
| CC(=O)Nc1cc(Nc2cc(C)cc(S(C)(=O)=O)n2)c(-c2cc3c(cn2)OCCO3)cn1 [Example Q18, N-(5-(2,3-dihydro-[1,4]dioxino[2,3-c]pyridin-7-yl)-4-((4-methyl-6-(methylsulfonyl)pyridin-2-yl)amino)pyridin-2-yl)acetamide] | 0.023 | > 10000 | 0.91 | >10989 |
| COCCOc1cc(Nc2cc(NC(C)=O)ncc2-c2cc3c(cn2)OCCO3)nc(S(C)(=O)=O)c1 [Example Q19, N-(5-(2,3-dihydro-[1,4]dioxino[2,3-c]pyridin-7-yl)-4-((4-(2-methoxyethoxy)-6-(methylsulfonyl)pyridin-2-yl)amino)pyridin-2-yl)acetamide] | 0.025 | > 10000 | 3.02 | >3311 |

Second part, led by results:

| IC50 [1] [nM] | IC50 [2] [nM] | IC50 [3] [nM] | Compound | Selectivity fold (TYK2/JAK2) [2] [fold] |
| --- | --- | --- | --- | --- |
| 0.036 | > 10000 | 50.2 | COc1cc(Nc2cc(NC(C)=O)ncc2-c2ccn([C@@H]3CCOC3)n2)nc(S(C)(=O)=O)c1 [Example M35, (R)-N-(4-((4-methoxy-6-(methylsulfonyl)pyridin-2-yl)amino)-5-(1-(tetrahydrofuran-3-yl)-1H-pyrazol-3-yl)pyridin-2-yl)acetamide] | >199 |
| 0.077 | 2130 | 0.247 | CC(=O)Nc1cc(Nc2cccc(S(C)(=O)=O)n2)c(-c2cc(C)n(C)n2)cn1 [Example N1, N-(5-(1,5-dimethyl-1H-pyrazol-3-yl)-4-((6-(methylsulfonyl)pyridin-2-yl)amino)pyridin-2-yl)acetamide] | 8635 |
| 0.021 | > 10000 | 0.641 | CC(=O)Nc1cc(Nc2cc(OC(C)C)cc(S(C)(=O)=O)n2)c(-c2cc(C)n(C)n2)cn1 [Example N2, N-(5-(1,5-dimethyl-1H-pyrazol-3-yl)-4-((4-isopropoxy-6-(methylsulfonyl)pyridin-2-yl)amino)pyridin-2-yl)acetamide] | >15600 |
| 0.033 | > 10000 | 12.6 | CC(=O)Nc1cc(Nc2cc(OCCO)cc(S(C)(=O)=O)c2)c(-c2cc(C)n(C)n2)cn1 [Example N3, N-(5-(1,5-dimethyl-1H-pyrazol-3-yl)-4-((3-(2-hydroxyethoxy)-5-(methylsulfonyl)phenyl)amino)pyridin-2-yl)acetamide] | >791 |
| 0.016 | 7010 | 1.12 | COCCOc1cc(Nc2cc(NC(C)=O)ncc2-c2cc(N3CCOCC3)n(C)n2)nc(S(C)(=O)=O)c1 [Example O2, N-(4-((4-(2-methoxyethoxy)-6-(methylsulfonyl)pyridin-2-yl)amino)-5-(1-methyl-5-morpholino-1H-pyrazol-3-yl)pyridin-2-yl)acetamide] | 6265 |
| 0.031 | 8300 | 6.86 | CC(=O)Nc1cc(Nc2cc(OCC(C)O)cc(S(C)(=O)=O)n2)c(-c2cc(N3CCOCC3)n(C)n2)cn1 (stereo not shown) [Example O3, N-(4-((4-(2-hydroxypropoxy)-6-(methylsulfonyl)pyridin-2-yl)amino)-5-(1-methyl-5-morpholino-1H-pyrazol-3-yl)pyridin-2-yl)acetamide] | 2109 |
| 0.021 | > 10000 | 1.7 | CC(=O)Nc1cc(Nc2cc(OC(C)C)cc(S(C)(=O)=O)n2)c(-c2ccc3c(n2)OCO3)cn1 [Example Q2, N-(5-([1,3]dioxolo[4,5-b]pyridin-5-yl)-4-((4-isopropoxy-6-(methylsulfonyl)pyridin-2-yl)amino)pyridin-2-yl)acetamide] | >5882 |
| 0.023 | > 10000 | 1.14 | CC(=O)Nc1cc(Nc2cc(C)cc(S(C)(=O)=O)n2)c(-c2ccc3c(n2)OCCO3)cn1 [Example Q3, N-(5-(2,3-dihydro-[1,4]dioxino[2,3-b]pyridin-6-yl)-4-((4-methyl-6-(methylsulfonyl)pyridin-2-yl)amino)pyridin-2-yl)acetamide] | >8771 |
| 0.037 | > 10000 | 1.1 | CC(=O)Nc1cc(Nc2cc(OC(C)C)cc(S(C)(=O)=O)n2)c(-c2cc3c(cn2)NCCO3)cn1 [Example Q4, N-(5-(3,4-dihydro-2H-pyrido[4,3-b][1,4]oxazin-7-yl)-4-((4-isopropoxy-6-(methylsulfonyl)pyridin-yl)amino)pyridin-2-yl)acetamide] | >9090 |
